Assay results as given in patent US11059843B2, “Stevioside M crystal form, preparation method therefor and use thereof” (ZHUCHENG HAOTIAN PHARM CO., LTD., priority 2017, dated 2021).

Assays:
[1] = Chemical stability by HPLC after storage at 40° C. and RH 75% for half a year; type: physicochemical
Method: HPLC analysis: It was determined using a 1260 infinity liquid chromatograph from Agilent Technologies, Inc., USA. Sample solution preparation method: 25-50 mg of stevioside M sample was accurately weighed, and added into a 25 ml volumetric flask, then water-acetonitrile (7:3, v/v) solution was added, dissolved to volume. Preparation method of sodium phosphate buffer (specification: 10 mmol/L, pH: 2.6): dissolving 2.76 g of sodium dihydrogen phosphate into 2 liters of water, adding phosphoric acid, and the pH was adjusted to 2.6. Chromatographic column: Luna 5μ C18(2) 100 A column from Phenomenex. Injection volume: 5 μl. Flow rate: 1.0 mL/min. Column temperature: 40° C. Detector: UV detection at 210 nm. The elution gradient is shown as follows: […]

[2] = Crystal form stability by XRPD after drying at 105° C. for one day; type: physicochemical
Method: (§1) X-ray powder diffraction analysis (XRPD), differential scanning calorimetry analysis (DSC), thermogravimetric analysis (TG), dynamic moisture adsorption analysis (DVS) and the like were made for the crystal form A of stevioside M prepared in the above examples. XRPD analysis: It was tested at room temperature using a Bruker D8 advance type diffractometer from Bruker Instruments, Germany, Cu-Kα ray (λ=1.5418 Å) was used, the 2θ angle was scanned from 3 to 40 degrees, and the scanning speed was 0.2 degrees/second.
The crystal form A of stevioside M prepared in the above examples was subjected to XRPD analysis after drying at 105° C. for one day, and the analysis results are shown in FIG. 7. It can be seen from FIG. 7 that the crystal form is unchanged, and the crystal form has good stability under high temperature conditions. The crystal form B of stevioside M is extremely unstable under high temperature conditions, and which is amorphous after drying for one day at 105° C., and the analysis results are shown in FIG. 8.

[3] = Physical stability of crystal form on storage at 25° C. and RH 60% for half a year (XRPD); type: physicochemical
Method: as §1
The crystal form A of stevioside M prepared in the above examples was stored at 25° C. and RH 60% for half a year, and the analysis results are shown in FIG. 9.

[4] = Water solubility / powder dissolution profile; type: physicochemical
Method: The crystal form A of stevioside M prepared in the above examples has good reproducibility and is stable in water solubility, and has a maximum solubility of about 3 mg/mL, and the equilibrium solubility is about 2 mg/mL at 24 hours. The powder dissolution profiles of the two batches of crystal form A of stevioside M prepared by the examples are shown in FIG. 11. The water solubility of crystal form A is similar to that of the stevioside D-stevioside M amorphous composition (about 3 mg/mL) disclosed in Patent CN 105722533 A, and both of which can stably increase the water solubility by 2-3 times.

[5] = Dynamic moisture adsorption (DVS) hygroscopicity; type: physicochemical; settings: for hygroscopic mass change (0%-40% RH) / hygroscopicity: water absorption at 40% RH / hygroscopic mass change (40%-80% RH) / hygroscopicity: water absorption at 80% RH: DVS, 25° C.
Method: DVS analysis: It was measured using DVS Intrinsic type dynamic moisture adsorption instrument from British SMS instrument company, measuring temperature: 25° C.; relative humidity: 0-95%.

[6] = water at room temperature, stevioside M content of 75% to 90%; cited from earlier work

reduction of content (HPLC) after storage [1] | crystal form after drying (XRPD) [2] | crystal form after storage (XRPD) [3] | equilibrium solubility in water ([4]; at 24 hours) | maximum solubility in water ([4]; powder dissolution) | hygroscopicity compared with the amorphous form and crystal form B ([5]; 25° C. and 40% RH) | hygroscopicity compared with amorphism under normal storage ([5]; 40%-80% RH) | hygroscopic mass change (0%-40% RH) [5] [%] | hygroscopicity: water absorption at 40% RH [5] | hygroscopic mass change (40%-80% RH) ([5]; 40%-80% RH) [%] | hygroscopicity: water absorption at 80% RH [5] | mass percentage of moisture absorption within a relative humidity of 0-40% ([5]; dynamic moisture adsorption profile FIG. 4, RH 0-40%) | mass percentage of moisture absorption within a relative humidity of 40-80% ([5]; dynamic moisture adsorption profile FIG. 4, RH 40-80%) | Structure (SMILES) | solubility in water [6]
less than 0.2% | unchanged | unchanged | about 2 mg/mL | about 3 mg/mL | significantly less hygroscopic | less hygroscopic than amorphism | 9.4 | 40% RH, 9.4% of | 4.6 | 80% RH, 14.0% of | 0-9.4% | 9.4-14.0% | C=C1C[C@@]23CCC4[C@](C)(C(=O)OC5OC(CO)C(O)C(OC6OC(CO)C(O)C(O)C6O)C5OC5OC(CO)C(O)C(O)C5O)CCC[C@@]4(C)[C@@H]2CCC1(OC1OC(CO)C(O)C(OC2OC(CO)C(O)C(O)C2O)C1OC1OC(CO)C(O)C(O)C1O)C3 (stereo partly drawn) [crystal form A of stevioside M, 13-[(2-O-β-D-pyranoglucosyl-3-O-β-D-pyranoglucosyl-β-D-pyranoglucosyl)oxyl]-ent-kauran-16-en-19-oic acid-[(2-O-β-D-pyranoglucosyl-3-O-β-D-pyranoglucosyl-β-D-pyranoglucosyl) ester]] | 
 |  |  |  |  |  |  |  |  |  |  |  |  | C=C1C[C@@]23CCC4[C@](C)(C(=O)OC5OC(CO)C(O)C(OC6OC(CO)C(O)C(O)C6O)C5OC5OC(CO)C(O)C(O)C5O)CCC[C@@]4(C)[C@@H]2CCC1(OC1OC(CO)C(O)C(OC2OC(CO)C(O)C(O)C2O)C1OC1OC(CO)C(O)C(O)C1O)C3 (stereo partly drawn) [stevioside M, 13-[(2-O-β-D-pyranoglucosyl-3-O-β-D-pyranoglucosyl-β-D-pyranoglucosyl)oxyl]-ent-kauran-16-en-19-oic acid-[(2-O-β-D-pyranoglucosyl-3-O-β-D-pyranoglucosyl-β-D-pyranoglucosyl) ester]] | 0.1% to 0.15
 | amorphous |  |  |  |  |  | 15.3 | 40% RH, 15.3% of | 2.1 | 80% RH, 17.4% of |  |  | C=C1C[C@@]23CCC4[C@](C)(C(=O)OC5OC(CO)C(O)C(OC6OC(CO)C(O)C(O)C6O)C5OC5OC(CO)C(O)C(O)C5O)CCC[C@@]4(C)[C@@H]2CCC1(OC1OC(CO)C(O)C(OC2OC(CO)C(O)C(O)C2O)C1OC1OC(CO)C(O)C(O)C1O)C3 (stereo partly drawn) [crystal form B of stevioside M, 13-[(2-O-β-D-pyranoglucosyl-3-O-β-D-pyranoglucosyl-β-D-pyranoglucosyl)oxyl]-ent-kauran-16-en-19-oic acid-[(2-O-β-D-pyranoglucosyl-3-O-β-D-pyranoglucosyl-β-D-pyranoglucosyl) ester]] | 
 |  |  |  |  |  |  | 11.0 | 40% RH, 11.0% of | 8.2 | 80% RH, 19.2% of |  |  | C=C1C[C@@]23CCC4[C@](C)(C(=O)OC5OC(CO)C(O)C(OC6OC(CO)C(O)C(O)C6O)C5OC5OC(CO)C(O)C(O)C5O)CCC[C@@]4(C)[C@@H]2CCC1(OC1OC(CO)C(O)C(OC2OC(CO)C(O)C(O)C2O)C1OC1OC(CO)C(O)C(O)C1O)C3 (stereo partly drawn) [amorphism of stevioside M, 13-[(2-O-β-D-pyranoglucosyl-3-O-β-D-pyranoglucosyl-β-D-pyranoglucosyl)oxyl]-ent-kauran-16-en-19-oic acid-[(2-O-β-D-pyranoglucosyl-3-O-β-D-pyranoglucosyl-β-D-pyranoglucosyl) ester], reference compound] | 
